PubChem BioAssay AID1918998 (Molecular Pharmacology Branch, DTP, NCI, 2023)
Where “and” joins values, the source holds several entries; their conditions need not be identical. Equal entries are not always repeated.

Test system: 521955-158-R2-J5-PDC complex spheroid growth
Experiment: Anticancer human tumor 521955-158-R2-J5-PDC patient-derived pancreatic carcinoma cell line growth inhibition [AhR]
Conditions: for viability, T/C: stronger effect = lower value
Method in brief: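 Complex tumor spheroids co-cultured with HUVEC and human MSC stroma; AhR antagonists tested in combination with standard-of-care and investigational agents. Top concentration at or near clinical Cmax (else 10 microM), half-log dilutions; growth expressed as percent test/control.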

[1] = curve of first compound, second compound 0.1 µM
[2] = curve of first compound, second compound 0.316 µM
[3] = curve of first compound, second compound 1 µM
[4] = curve of first compound, second compound 3.16 µM
[5] = curve of first compound, second compound 10 µM
[6] = second compound 0.1 µM, first compound 0.0316 µM
[7] = second compound 0.1 µM, first compound 0.1 µM
[8] = second compound 0.1 µM, first compound 0.316 µM
[9] = second compound 0.1 µM, first compound 1 µM
[10] = second compound 0.1 µM, first compound 3.16 µM
[11] = second compound 0.1 µM, first compound 10 µM
[12] = second compound 0.316 µM, first compound 0.0316 µM
[13] = second compound 0.316 µM, first compound 0.1 µM
[14] = second compound 0.316 µM, first compound 0.316 µM
[15] = second compound 0.316 µM, first compound 1 µM
[16] = second compound 0.316 µM, first compound 3.16 µM
[17] = second compound 0.316 µM, first compound 10 µM
[18] = second compound 1 µM, first compound 0.0316 µM
[19] = second compound 1 µM, first compound 0.1 µM
[20] = second compound 1 µM, first compound 0.316 µM
[21] = second compound 1 µM, first compound 1 µM
[22] = second compound 1 µM, first compound 3.16 µM
[23] = second compound 1 µM, first compound 10 µM
[24] = second compound 3.16 µM, first compound 0.0316 µM
[25] = second compound 3.16 µM, first compound 0.1 µM
[26] = second compound 3.16 µM, first compound 0.316 µM
[27] = second compound 3.16 µM, first compound 1 µM
[28] = second compound 3.16 µM, first compound 3.16 µM
[29] = second compound 3.16 µM, first compound 10 µM
[30] = second compound 10 µM, first compound 0.0316 µM
[31] = second compound 10 µM, first compound 0.1 µM
[32] = second compound 10 µM, first compound 0.316 µM
[33] = second compound 10 µM, first compound 1 µM
[34] = second compound 10 µM, first compound 3.16 µM
[35] = second compound 10 µM, first compound 10 µM
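For viability, T/C in this document: spheroids mix tumor cells with HUVEC endothelium and human MSC stroma; luminescence taken as viability surrogate after a week of drug exposure.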

IC50 [1] [nM]	IC50 [2] [nM]	IC50 [3] [nM]	IC50 [4] [nM]	IC50 [5] [nM]	SMILES	viability, T/C [6] [%]	viability, T/C [7] [%]	viability, T/C [8] [%]	viability, T/C [9] [%]	viability, T/C [10] [%]	viability, T/C [11] [%]	viability, T/C [12] [%]	viability, T/C [13] [%]	viability, T/C [14] [%]	viability, T/C [15] [%]	viability, T/C [16] [%]	viability, T/C [17] [%]	viability, T/C [18] [%]	viability, T/C [19] [%]	viability, T/C [20] [%]	other results
> 10000	> 10000	> 10000	> 10000	> 10000	O=C(c1cc(Cc2n[nH]c(=O)c3ccccc23)ccc1F)N1CCN(C(=O)C2CC2)CC1 + Cc1ccccc1N=Nc1ccc(NC(=O)c2ccnn2C)c(C)c1	101	83.6	98.5	104	73.6	63.1	90	85.7	101	88.6	80.8	77.8	134	107	136	viability, T/C [21]: 89.8%; viability, T/C [22]: 93%; viability, T/C [23]: 63.6%; viability, T/C [24]: 124%; viability, T/C [25]: 109%; viability, T/C [26]: 129%; viability, T/C [27]: 106%; viability, T/C [28]: 118%; viability, T/C [29]: 98%; viability, T/C [30]: 141%; viability, T/C [31]: 155%; viability, T/C [32]: 148%; viability, T/C [33]: 131%; viability, T/C [34]: 113%; viability, T/C [35]: 103%
					COc1cccc2c1C(=O)c1c(O)c3c(c(O)c1C2=O)CC(O)(C(=O)CO)CC3OC1CC(N)C(O)C(C)O1 (centres undefined)																viability, T/C (compound 0.0316 µM): 60.2% and 42.4% and 46.4%; viability, T/C (compound 0.1 µM): 51.7% and 29.8% and 35.3%; viability, T/C (compound 0.316 µM): 40.5% and 30.9% and 23.8%; viability, T/C (compound 1 µM): 2.19% and 6.39% and 4.25%; viability, T/C (compound 3.16 µM): 3.29% and 2.59% and 2.1%; viability, T/C (compound 10 µM): 12.3% and 10.8% and 14%; IC50 (curve of compound): 155 nM and < 31.6 nM
					Nc1ccn(C2OC(CO)C(O)C2(F)F)c(=O)n1 (centres undefined)																viability, T/C (compound 0.0316 µM): 73.8% and 54.7% and 44.6%; viability, T/C (compound 0.1 µM): 79.4% and 73.8% and 60.9%; viability, T/C (compound 0.316 µM): 62.2% and 61% and 53.9%; viability, T/C (compound 1 µM): 39.4% and 28.6% and 24.9%; viability, T/C (compound 3.16 µM): 29.8% and 15.9% and 17.8%; viability, T/C (compound 10 µM): 28.7% and 13.2% and 15.3%; IC50 (curve of compound): 590 nM and 472 nM and 359 nM
571	501	860	967	604	Nc1ccn(C2OC(CO)C(O)C2(F)F)c(=O)n1 (centres undefined) + Cc1cncc(-c2nc(NCCc3c[nH]c4ccccc34)c3ncn(C(C)C)c3n2)c1	67.6	65.7	62.2	38.4	31.8	24.7	87.5	80.8	58.9	34.8	33.6	22.3	104	86	70.4	viability, T/C [21]: 42.6%; viability, T/C [22]: 38.3%; viability, T/C [23]: 25.3%; viability, T/C [24]: 116%; viability, T/C [25]: 97.5%; viability, T/C [26]: 73.7%; viability, T/C [27]: 47.7%; viability, T/C [28]: 36%; viability, T/C [29]: 26.1%; viability, T/C [30]: 151%; viability, T/C [31]: 99.3%; viability, T/C [32]: 67.2%; viability, T/C [33]: 36%; viability, T/C [34]: 27.7%; viability, T/C [35]: 22.2%
1060	1160	916	698	422	COc1cc(C2c3cc4c(cc3C(OC3OC5COC(C)OC5C(O)C3O)C3COC(=O)C23)OCO4)cc(OC)c1O (centres undefined) + CC(CO)NC(=O)c1cc(-c2ccc(Cl)cc2)nn(-c2cnn(C)c2)c1=O	85	78	91.8	51.4	29.3	17	92.3	102	87.5	53.4	25.5	16.6	98	98.3	95.7	viability, T/C [21]: 46.1%; viability, T/C [22]: 24.5%; viability, T/C [23]: 20.6%; viability, T/C [24]: 93.5%; viability, T/C [25]: 87.5%; viability, T/C [26]: 91.9%; viability, T/C [27]: 31.4%; viability, T/C [28]: 23.6%; viability, T/C [29]: 22.8%; viability, T/C [30]: 76.3%; viability, T/C [31]: 71.4%; viability, T/C [32]: 55.3%; viability, T/C [33]: 33.3%; viability, T/C [34]: 20.4%; viability, T/C [35]: 14.2%
